Data from PubChem BioAssay (NCI).
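Dose response: 5 concentrations. Exposure: 48 h. Format: 96-well plates. Endpoint: linear interpolation; highest concentration if not reached. The concentration for 50% growth inhibition is given as GI50. TGI: total growth inhibition.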

How the values were obtained:
Test in all cases: inhibition of tumour cell growth, NCI panel, 48 h
ACHN renal = test system: ACHN renal
786-0 renal = test system: 786-0 renal
RPMI-8226 leukemia = test system: RPMI-8226 leukemia
OVCAR-8 ovarian = test system: OVCAR-8 ovarian
OVCAR-3 ovarian = test system: OVCAR-3 ovarian
CCRF-CEM leukemia = test system: CCRF-CEM leukemia
SN12C renal = test system: SN12C renal
HL-60(TB) leukemia = test system: HL-60(TB) leukemia
IGROV1 ovarian = test system: IGROV1 ovarian
UACC-62 melanoma = test system: UACC-62 melanoma

| SMILES | GI50 (ACHN renal) [µM] | TGI (ACHN renal) [µM] | GI50 (786-0 renal) [µM] | TGI (786-0 renal) [µM] | GI50 (RPMI-8226 leukemia) [µM] | TGI (RPMI-8226 leukemia) [µM] | GI50 (OVCAR-8 ovarian) [µM] | TGI (OVCAR-8 ovarian) [µM] | GI50 (OVCAR-3 ovarian) [µM] | TGI (OVCAR-3 ovarian) [µM] | GI50 (CCRF-CEM leukemia) [µM] | TGI (CCRF-CEM leukemia) [µM] | GI50 (SN12C renal) [µM] | TGI (SN12C renal) [µM] | GI50 (HL-60(TB) leukemia) [µM] | TGI (HL-60(TB) leukemia) [µM] | GI50 (IGROV1 ovarian) [µM] | TGI (IGROV1 ovarian) [µM] | GI50 (UACC-62 melanoma) [µM] | TGI (UACC-62 melanoma) [µM] |
| --- | --- | --- | --- | --- | --- | --- | --- | --- | --- | --- | --- | --- | --- | --- | --- | --- | --- | --- | --- | --- |
| COc1cc[nH]c1/C=C1\C(=O)Nc2ccc(F)c(I)c21 | > 25 | > 25 | > 25 | > 25 | > 25 | > 25 | > 25 | > 25 | > 25 | > 25 | > 25 | > 25 | > 25 | > 25 | > 25 | > 25 | > 25 | > 25 | > 25 | > 25 |
| O=c1cc(-c2ccccc2)c2cc3c(=O)ccoc3cc2o1 | – | > 100 | – | > 100 | – | > 100 | – | > 100 | – | > 100 | – | > 100 | – | > 100 | – | > 100 | – | – | – | > 100 |
| Clc1nc(Cl)c2c(ncn2C/C=C\Cn2cnc3c(Cl)nc(Cl)nc32)n1 | 1.83 | 3.33 | 2.93 | 10.5 | 1.58 | 3.8 | 1.2 | 4.37 | 1.68 | 3.04 | 0.573 | 2.57 | 1.8 | 6.14 | 1.85 | > 100 | 0.269 | 0.771 | 1.83 | 4.09 |
| CC(=O)c1cc([N+](=O)[O-])ccc1OCC(=O)O | – | > 100 | – | > 100 | – | > 100 | – | > 100 | – | > 100 | – | > 100 | – | > 100 | – | > 100 | – | > 100 | – | > 100 |
| Cn1ccnc1C(=O)/C=C/c1ccc(CC(=O)Nc2ccccc2)cc1 | 5.24 | 15.6 | 2.67 | 7.86 | 1.45 | 9.7 | 6.44 | > 25 | 1.87 | 5.37 | 2.37 | > 25 | 3.84 | 14.3 | 1.57 | 9.35 | 2.11 | 14.5 | 4.13 | 9.95 |
| Nc1cc(N)c(N)cc1N | 1.73 | 3.72 | 2.27 | 4.99 | 3.48 | 17.5 | 3.15 | 12.3 | 1.97 | 4.46 | 3.43 | 27.5 | 1.6 | 3.08 | 2.17 | 6.02 | 2.17 | 4.83 | 1.55 | 2.97 |
| N#C/C(=C\c1cccc(O)c1)C(N)=O | – | > 100 | – | > 100 | – | > 100 | – | > 100 | – | > 100 | – | > 100 | – | > 100 | – | 43.5 | – | > 100 | – | > 100 |
